PMC8490515, “Neuromedin B receptor stimulation of Cav3.2 T-type Ca^2+ channels in primary sensory neurons mediates peripheral pain hypersensitivity” (Theranostics, 2021)

Columns and labels:
[1] = tested on: T-type channels in small TG neurons; assay: Whole-cell patch clamp of T-type channel currents (IT) in small TG neurons; assay type: cell-based, mouse
[2] = tested on: Cav3.2 (α1H); assay: Cav3.2 channel currents in HEK293 cells coexpressing NmbR; assay type: cell-based, human
Experimental: Standard whole-cell recordings were made at room temperature (22-23 °C) as described previously, [25]. Recording electrodes were pulled from borosilicate glass microcapillary tubes (Sutter Instruments) and had resistances from 3 to 5 MΩ when filled with internal solution. Recordings were obtained using a MultiClamp 700B amplifier (Axon Instruments). Data were digitized on a personal computer using a Digidata 1440 interface under the control of the pClamp10.2 acquisition package (Molecular Devices). Data were acquired at 20 kHz with a low-pass Bessel filter at 2-5 kHz. Series resistance was compensated to 80%. The internal solution used for T-type channel current recordings contained 110 mM CsCl, 4 mM Mg-ATP, 0.3 mM Na2-GTP, 25 mM HEPES, and 10 mM EGTA, adjusted to pH 7.4 with CsOH; 295 mOsm. The external solution used for T-type channel current recordings contained 5 mM BaCl2, 140 mM TEA-Cl, 10 mM HEPES, 0.5 mM MgCl2, 5 mM CsCl, and 5.5 mM glucose, adjusted to pH 7.35 with TEA-OH; 305 mOsm. In experiments for Kv current recordings, the extracellular solution contained 140 mM choline-Cl, 1 mM MgCl2, 0.03 mM CaCl2, 5 mM KCl, 10 mM HEPES, and 10 mM glucose, adjusted to pH 7.4 with KOH; 310 mOsm. The intracellular pipette solution contained 140 mM KCl, 1 mM MgCl2, 0.5 mM CaCl2, 3 mM Mg-ATP, 0.3 mM Na2-GTP, 10 mM HEPES, and 5 mM EGTA, adjusted to pH 7.4 with KOH; 295 mOsm.

[3] = tested on: Cav3.1 (α1G); assay: Cav3.1 channel currents in HEK293 cells coexpressing NmbR; assay type: cell-based, human; conditions: 100 nM Nmb; -110 mV to -30 mV; n = 10
[4] = tested on: Cav3.3 (α1I); assay: Cav3.3 channel currents in HEK293 cells coexpressing NmbR; assay type: cell-based, human; conditions: 100 nM Nmb; -110 mV to -30 mV; n = 7
[5] = tested on: small TG neurons; assay: TG neuronal excitability (action potential firing, rheobase, threshold); assay type: cell-based, mouse
Experimental: All the procedures performed in this study were carried out in accordance with NIH guidelines and were approved by the Institutional Animal Care and Use Committee of Soochow University. TG neurons were dissociated as previously described, [23]. Briefly, TGs were harvested from 8- to 10-week-old ICR mice of either sex, cut into small pieces and treated with 2 mg/mL collagenase D (Roche) for 20 min followed by 1.5 mg/mL trypsin (Sigma) at 37 °C for 15 min. Cells were dissociated via gentle trituration with fire-polished sterilized Pasteur pipettes and centrifuged through a 15% BSA gradient to remove debris and nonneuronal cells. TG neurons were resuspended in neurobasal A (Thermo Fisher) supplemented with B27 (Thermo Fisher) and transferred onto Matrigel-coated coverslips. Patch clamp recordings were conducted 2 to 6 h after plating. In shRNA-treated knockdown experiments, TG cells were replated onto coverslips 48 h after infection.
Standard whole-cell recordings were made at room temperature (22-23 °C) as described previously, [25]. Recording electrodes were pulled from borosilicate glass microcapillary tubes (Sutter Instruments) and had resistances from 3 to 5 MΩ when filled with internal solution. Recordings were obtained using a MultiClamp 700B amplifier (Axon Instruments). Data were digitized on a personal computer using a Digidata 1440 interface under the control of the pClamp10.2 acquisition package (Molecular Devices). Data were acquired at 20 kHz with a low-pass Bessel filter at 2-5 kHz. Series resistance was compensated to 80%. The internal solution used for T-type channel current recordings contained 110 mM CsCl, 4 mM Mg-ATP, 0.3 mM Na2-GTP, 25 mM HEPES, and 10 mM EGTA, adjusted to pH 7.4 with CsOH; 295 mOsm. The external solution used for T-type channel current recordings contained 5 mM BaCl2, 140 mM TEA-Cl, 10 mM HEPES, 0.5 mM MgCl2, 5 mM CsCl, and 5.5 mM glucose, adjusted to pH 7.35 with TEA-OH; 305 mOsm. In experiments for Kv current recordings, the extracellular solution contained 140 mM choline-Cl, 1 mM MgCl2, 0.03 mM CaCl2, 5 mM KCl, 10 mM HEPES, and 10 mM glucose, adjusted to pH 7.4 with KOH; 310 mOsm. The intracellular pipette solution contained 140 mM KCl, 1 mM MgCl2, 0.5 mM CaCl2, 3 mM Mg-ATP, 0.3 mM Na2-GTP, 10 mM HEPES, and 5 mM EGTA, adjusted to pH 7.4 with KOH; 295 mOsm. The two kinetically distinct Kv currents in small TG neurons were separated by the two-step voltage protocol as previously described, [26]. The external solution for Nav current clamp recordings contained 2 mM KCl, 2 mM MgCl2, 25 mM HEPES, 2 mM CaCl2, 128 mM NaCl, and 30 mM glucose, adjusted to pH 7.4 with NaOH; 305 mOsm. The internal solution contained 10 mM NaCl, 110 mM KCl, 4 mM Mg-ATP, 0.3 mM Na2-GTP, 25 mM HEPES, and 2 mM EGTA, adjusted to pH 7.3 with KOH; 295 mOsm. Nmb was applied to a patched cell by an air-pressure microinjector (Pneumatic PicoPump, model PV830, WPI).
We next determined the role of the Nmb-induced T-type channel response in regulating TG neuronal excitability. […] Furthermore, application of Nmb (100 nM) to TG neurons decreased the peak amplitude of the transient outward K^+ channel currents (A-type currents or IA) (decrease of 22.3 ± 3.9%; Figure 6C), while the sustained delayed rectifier K^+ channel currents (IDR) remained unaffected (decrease of 1.9 ± 1.6%; Figure 6C). […] To further test this hypothesis, a shorter (1 ms) current injection was applied to avoid contaminating the action potential waveform with the stimulus. Neurons were manually hyperpolarized to membrane potentials of -75 mV to maximize the number of T-type channels available for activation. With increasingly stronger current injections (+200 pA), the threshold current necessary to evoke an overshooting AP was determined for each neuron in the presence or absence of Nmb.

With Neuromedin B [Nmb] the “reversal of IT increase when Nmb removed by washing” value ([1]; 100 nM, washout) was “partially reversed”, the “increase of peak amplitude of IT by Nmb” value ([1]; 100 nM, mean ± SEM, n = 9) was 34.2 ± 1.9% and the “current-voltage relationship curve of IT” value ([1]; 100 nM, n = 8) was “downward shifted the current-voltage relationship curve”. For the same compound, the “depolarizing shift in steady-state inactivation” value ([1]; 100 nM, n = 9) was ~ 7.3 mV, the “shift in activation properties” value ([1]; 100 nM, n = 9) was “no significant shifts in activation properties” and the EC50 ([1]; sigmoidal Hill equation fit, small TG neurons, read-out: EC50 for IT increase) was 45.3 nM. The Vhalf of activation ([1]; with 100 nM Nmb (control -47.1 ± 1.9 mV), n = 9) was -46.3 ± 2.2 mV, the “Vhalf of steady-state inactivation” value ([1]; with 100 nM Nmb (control -80.1 ± 2.5 mV), n = 9) was -72.8 ± 1.3 mV and the “increase of Cav3.2 channel currents” value ([2]; 100 nM Nmb, -110 mV to -30 mV, n = 9) was 36.2 ± 3.1%. For the same compound, the EC50 ([2]; sigmoidal dose-response fit, read-out: EC50 for increase of Cav3.2 channel currents) was 47.6 nM, the “increase of Cav3.1 channel currents” value [3] was 0.7 ± 1.2% and the “increase of Cav3.3 channel currents” value [4] was 2.9 ± 1.6%. For the same compound, the “threshold current with Nmb” value ([5]; 100 nM (control +0.98 nA)) was “+0.79 nA”, the “increase of action potential firing rate” value ([5]; 100 nM, 5 mM 4-AP and 5 μM nifedipine, 1-s current injection, n = 17) was 43.7 ± 3.7% and the “cells in which the threshold was significantly lowered” value ([5]; 100 nM, 1 ms current injection, -75 mV) was 15 of 19. The resting membrane potential ([5]; 100 nM, n = 17) was “not significantly changed” and the “rheobase (vs nontreated)” value ([5]; 100 nM, n = 17) was “significantly lower”.

With CCCCCCOC(=O)[C@]1(O)C[C@@H]2O[C@@]1(C)n1c3ccccc3c3c4c(c5c6ccccc6n2c5c31)C(=O)NC4 [KT-5720] the “effect on forskolin-induced IT increase” value ([1]; 1 µM KT-5720 pretreatment, 10 μM forskolin, n = 6) was “abrogated”, the “Nmb-induced increase in IT after KT-5720” value ([1]; pretreatment 1 µM KT-5720, 100 nM Nmb, n = 7) was 2.8 ± 2.9% and the “Nmb-induced increase of Cav3.2 currents after KT-5720” value ([2]; pretreatment 1 µM KT-5720, 100 nM Nmb, n = 9) was 1.9 ± 4.2%. The “effect on Nmb-mediated increase in AP firing rate / hyperexcitability” value ([5]; pretreatment KT-5720 1 µM (n = 12) or NiCl2 50 μM (n = 11), 100 nM Nmb) was “blocked”.
